# Measurements as given in PMC12549899 (Nature Communications, 2025).
# Biological target: T1, mouse OTOP1 (mOTOP1) (Mus musculus, UniProt Q80VM9)
# T1 construct: expressed in transfected cells; host or cells: HEK-293 (CRL-1573, ATCC)
# T1 sequence (Q80VM9 1-600): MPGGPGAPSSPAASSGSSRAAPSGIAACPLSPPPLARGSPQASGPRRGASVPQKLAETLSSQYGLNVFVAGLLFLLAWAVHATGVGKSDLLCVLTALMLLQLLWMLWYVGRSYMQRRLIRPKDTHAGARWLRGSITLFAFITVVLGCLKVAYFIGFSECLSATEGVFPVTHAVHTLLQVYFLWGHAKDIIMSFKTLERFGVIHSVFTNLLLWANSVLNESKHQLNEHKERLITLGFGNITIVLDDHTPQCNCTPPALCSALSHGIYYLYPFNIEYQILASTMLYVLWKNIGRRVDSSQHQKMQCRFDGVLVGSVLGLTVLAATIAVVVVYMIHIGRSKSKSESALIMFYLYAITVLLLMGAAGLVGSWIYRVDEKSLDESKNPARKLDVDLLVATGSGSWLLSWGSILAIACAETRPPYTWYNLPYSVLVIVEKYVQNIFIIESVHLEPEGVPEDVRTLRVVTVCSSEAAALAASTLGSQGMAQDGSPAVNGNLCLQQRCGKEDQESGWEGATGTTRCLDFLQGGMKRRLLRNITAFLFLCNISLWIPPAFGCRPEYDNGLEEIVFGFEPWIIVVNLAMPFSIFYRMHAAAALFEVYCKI
# Assay: Whole-cell patch-clamp, inhibition of currents, mOTOP1 in HEK-293 cells
# Assay type: cell-based
# Conditions: HEK293, 100 µM (saturating concentration of C2.2)
# Text: The second series of compounds was again tested by whole-cell patch-clamp recording of DrOTOP1 expressed in HEK-293 cells. Of the 54 compounds tested, we identified 16 that inhibited DrOTOP1 acid-induced currents by over 25% (Fig. 2D and Supplementary Fig. 3E). […] The Hill coefficient of 1.52 indicated positive cooperativity and multiple binding sites, similar to C11. We next tested each of these compounds against mouse OTOP1 (mOTOP1) and human (Homo sapiens) OTOP1 (hOTOP1), which are among the closest related proteins in the mammalian proteome. […] For both compounds, we also determined whether there was any pH-dependence to their inhibitory effect by measuring dose-response curves over a range from pH 6.0, where sizable currents first appear, to pH 5.0. […]
# Whole-cell patch-clamp recording was performed as previously described[6],[22],[25]. Recordings were made with an Axopatch 200B amplifier, digitized with a Digidata 1322a 16-bit data acquisition system, acquired with pClamp 8.2 and analyzed with Clampfit 10 (Molecular Devices). […]
# All data are presented as mean ± SEM unless otherwise noted, and each data point represents an independent replicant. Inhibition of compounds was quantified as ((I2peak-I1)/(I2peak))*100, where I1 is the current immediately before wash-off and I2peak is the maximum recovered current (Supplementary Fig. 2). […]
smiles,measurement,value
C=C(C)COc1ccccc1NC(=O)c1nc[nH]c1C [C2.2],inhibition at 100 µM,1.92%
